Source: the CheMixHub drug solubility set

Assay: xn = mol fraction of the nth substance listed, in the solute-free solvent

Nc1ccc(Oc2ccc(N)cc2)cc1 + COCCO + CCO
solubility (g/100 g solution)
Conditions	293.15 K	298.15 K	303.15 K	308.15 K	313.15 K	318.15 K	323.15 K	328.15 K	333.15 K
x2 = 0.06303	0.499	0.623	0.747	0.912	1.12	1.28	1.53	1.85	2.05
x2 = 0.1315	0.717	0.756	1.15	1.31	1.47	1.66	2.05	2.13	2.67
x2 = 0.206	1.06	1.1	1.51	1.67	1.81	2.26	2.59	2.89	3.33
x2 = 0.2875	1.41	1.52	2.06	2.16	2.37	2.9	3.32	3.5	4.01
x2 = 0.3771	1.82	2.06	2.54	2.67	3.1	3.47	4.03	4.26	4.95
x2 = 0.4759	2.25	2.54	3.08	3.31	3.71	4.25	4.81	4.96	5.85
x2 = 0.5855	2.84	3.2	3.71	4.1	4.42	5.1	5.68	6.03	6.84
x2 = 0.7077	3.66	3.97	4.45	4.86	5.25	6.05	6.65	7.22	7.97
x2 = 0.8449	4.52	4.75	5.33	5.75	6.21	6.99	7.7	8.23	9.05

Nc1cccc(S(=O)(=O)c2cccc(N)c2)c1 + CCO + O
solubility (g/100 g solution)
Conditions	283.15 K	288.15 K	293.15 K	298.15 K	303.15 K	308.15 K	313.15 K	318.15 K	323.15 K	328.15 K
x2 = 0.04165	0.0709	0.0964	0.128	0.168	0.215	0.284	0.356	0.459	0.577	0.72
x2 = 0.08908	0.129	0.173	0.226	0.3	0.383	0.491	0.619	0.788	0.987	1.23
x2 = 0.1436	0.209	0.277	0.357	0.462	0.591	0.744	0.941	1.16	1.45	1.78
x2 = 0.2068	0.318	0.41	0.509	0.646	0.822	1.02	1.25	1.51	1.84	2.24
x2 = 0.2812	0.455	0.561	0.706	0.874	1.07	1.3	1.56	1.89	2.26	2.69
x2 = 0.3698	0.604	0.732	0.907	1.11	1.34	1.64	1.92	2.33	2.7	3.21
x2 = 0.4772	0.76	0.93	1.14	1.34	1.62	1.92	2.28	2.69	3.15	3.7
x2 = 0.6101	0.914	1.09	1.31	1.55	1.88	2.19	2.57	3.03	3.51	4.06
x2 = 0.7788	1.1	1.29	1.52	1.79	2.08	2.43	2.81	3.25	3.75	4.28

O=c1ccc(-c2ccccc2)n[nH]1 + CS(C)=O + O
solubility (g/100 g solution)
Conditions	x2 = 0.02501	x2 = 0.05457	x2 = 0.09003	x2 = 0.1334	x2 = 0.1876	x2 = 0.2572	x2 = 0.3501	x2 = 0.4801	x2 = 0.6751
298.15 K	0.016	0.0442	0.124	0.333	0.899	2.36	6.21	14.3	30.9
303.15 K	0.0188	0.051	0.14	0.376	1.01	2.59	6.53	15.1	32.4
308.15 K	0.0223	0.0609	0.166	0.428	1.12	2.85	7.05	16.1	33.6
313.15 K	0.0267	0.0709	0.188	0.487	1.26	3.14	7.63	17.1	35.2
318.15 K	0.0334	0.0872	0.224	0.571	1.45	3.54	8.41	18.3	36.8

COC(=O)C(C)(C)N=NC(C)(C)C(=O)OC + CO + O
Conditions	solubility (g/100 g solution)
252.55 K, x2 = 0.692	1.72
252.85 K, x2 = 0.914	5.48
252.95 K, x2 = 0.628	1.36
253.15 K, x2 = 0.835	4.25
253.35 K, x2 = 0.511	0.455
253.45 K, x2 = 0.578	0.701
254.15 K, x2 = 0.761	2.82
254.75 K, x2 = 0.692	2.04
255.35 K, x2 = 0.628	1.61
255.55 K, x2 = 0.914	7.08
255.95 K, x2 = 0.578	0.875
255.95 K, x2 = 0.835	5.53
256.55 K, x2 = 0.511	0.546
256.65 K, x2 = 0.761	3.73
257.35 K, x2 = 0.692	3.07
257.95 K, x2 = 0.628	2.02
258.55 K, x2 = 0.578	1.31
259.05 K, x2 = 0.511	0.817
259.85 K, x2 = 0.914	9.9
260.15 K, x2 = 0.835	7.93
260.55 K, x2 = 0.761	5.93
261.05 K, x2 = 0.692	4.39
261.65 K, x2 = 0.628	2.76
262.15 K, x2 = 0.578	2.5
262.75 K, x2 = 0.511	1.35
263.35 K, x2 = 0.914	12.7
263.75 K, x2 = 0.835	9.97
263.95 K, x2 = 0.761	6.93
264.35 K, x2 = 0.692	5.15
264.85 K, x2 = 0.628	4.05
265.25 K, x2 = 0.578	3.25
265.75 K, x2 = 0.511	2.24
265.95 K, x2 = 0.914	14.4
266.15 K, x2 = 0.835	11.5
266.35 K, x2 = 0.761	8.33
267.95 K, x2 = 0.511	3.2
268.05 K, x2 = 0.628	5.71
268.05 K, x2 = 0.692	7.96
268.05 K, x2 = 0.761	9.69
268.05 K, x2 = 0.835	12.8
268.05 K, x2 = 0.914	16.6
268.25 K, x2 = 0.578	5.05
273.25 K, x2 = 0.835	20.2
273.35 K, x2 = 0.511	5.31
273.35 K, x2 = 0.578	7.79
273.35 K, x2 = 0.628	9.15
273.35 K, x2 = 0.914	26.6
273.45 K, x2 = 0.692	12.2
273.55 K, x2 = 0.761	17.3
275.55 K, x2 = 0.914	32
275.65 K, x2 = 0.511	6.38
275.65 K, x2 = 0.578	8.78
275.65 K, x2 = 0.835	25.5
275.75 K, x2 = 0.692	16.8
275.75 K, x2 = 0.761	20.5
275.85 K, x2 = 0.628	12.8
278.15 K, x2 = 0.835	32.7
278.15 K, x2 = 0.914	38.9
278.25 K, x2 = 0.761	27.3
278.35 K, x2 = 0.511	7.35
278.35 K, x2 = 0.578	10.2
278.35 K, x2 = 0.628	16
278.35 K, x2 = 0.692	21.6
280.65 K, x2 = 0.914	47.1
280.75 K, x2 = 0.692	27.6
280.75 K, x2 = 0.761	33.4
280.75 K, x2 = 0.835	39.1
280.85 K, x2 = 0.628	20.5
280.95 K, x2 = 0.578	15.1
281.05 K, x2 = 0.511	9.61
283.05 K, x2 = 0.578	21
283.05 K, x2 = 0.835	51.4
283.05 K, x2 = 0.914	55.7
283.15 K, x2 = 0.692	36.3
283.15 K, x2 = 0.761	44.2
283.45 K, x2 = 0.511	12.7
283.45 K, x2 = 0.628	28.1
285.65 K, x2 = 0.835	62.4
285.65 K, x2 = 0.914	66.9
285.75 K, x2 = 0.578	29.5
285.75 K, x2 = 0.628	39
285.75 K, x2 = 0.692	48.6
285.75 K, x2 = 0.761	56.4
285.85 K, x2 = 0.511	19.1
288.15 K, x2 = 0.578	42.6
288.15 K, x2 = 0.628	55.9
288.25 K, x2 = 0.761	71.5
288.25 K, x2 = 0.835	75.3
288.25 K, x2 = 0.914	78.2
288.35 K, x2 = 0.692	65.6
290.65 K, x2 = 0.628	77.7
290.65 K, x2 = 0.914	86.1
290.75 K, x2 = 0.692	81.5
290.75 K, x2 = 0.761	83.9
290.75 K, x2 = 0.835	85.1
293.15 K, x2 = 0.761	91.5
293.15 K, x2 = 0.835	91.5
293.15 K, x2 = 0.914	91.9
293.25 K, x2 = 0.692	91.2
293.35 K, x2 = 0.628	91.1

Cl.N=C(N)N + COCCO + CCCO
solubility (g/100 g solution)
Conditions	278.15 K	283.15 K	288.15 K	293.15 K	298.15 K	303.15 K	308.15 K	313.15 K	318.15 K	323.15 K
x2 = 0.08075	10.4	11.1	12.4	13.1	14.6	15.7	16.7	17.6	19.2	20.2
x2 = 0.253	17.4	18.7	20.1	20.9	21.8	23.2	24.1	24.9	25.7	26.9
x2 = 0.4413	23.9	24.8	25.9	26.6	27.7	28.3	29.1	30	30.9	31.4
x2 = 0.6479	29.4	30.1	30.7	31.8	32.2	33.2	33.8	34.3	35	35.6
x2 = 0.8768	32.5	33.2	34.3	34.9	35.8	36.6	37.1	38.3	38.9	39.5

COc1cc2c(cc1OC)-c1cc3ccc(OC)c(OC)c3c[n+]1CC2.[Cl-] + CCO + O
solubility (g/100 g solution)
Conditions	283.15 K	288.15 K	293.15 K	298.15 K	303.15 K	308.15 K	313.15 K	318.15 K	323.15 K	328.15 K
x2 = 0.04165	1.22	1.49	1.87	2.33	2.87	3.46	4.17	4.96	5.87	6.89
x2 = 0.08908	1.26	1.54	1.93	2.4	2.94	3.56	4.28	5.08	6.01	7.05
x2 = 0.1436	1.34	1.62	2.03	2.52	3.14	3.77	4.52	5.34	6.28	7.33
x2 = 0.2068	1.44	1.74	2.17	2.68	3.27	3.94	4.73	5.59	6.6	7.72
x2 = 0.2812	1.57	1.89	2.37	2.96	3.58	4.32	5.15	6.02	7.08	8.21
x2 = 0.3698	1.72	2.06	2.54	3.13	3.8	4.55	5.44	6.39	7.51	8.77
x2 = 0.4772	1.88	2.23	2.75	3.38	4.16	5.02	5.95	6.91	8.09	9.31
x2 = 0.6101	2.02	2.39	2.94	3.6	4.33	5.16	6.14	7.16	8.39	9.76
x2 = 0.7788	2.11	2.48	3.08	3.79	4.53	5.41	6.4	7.47	8.65	9.96

c1ccc2[nH]c(-c3cscn3)nc2c1 + CC(C)O + O
solubility (g/100 g solution)
Conditions	283.15 K	288.15 K	293.15 K	298.15 K	303.15 K	308.15 K	313.15 K	318.15 K	323.15 K
x2 = 0.03225	0.00182	0.0023	0.00284	0.00356	0.0044	0.00539	0.00665	0.00808	0.00978
x2 = 0.06974	0.00792	0.00964	0.0123	0.015	0.0183	0.022	0.0263	0.0311	0.0368
x2 = 0.1139	0.0206	0.0251	0.0303	0.0374	0.0453	0.0539	0.064	0.0751	0.0876
x2 = 0.1666	0.0372	0.0456	0.0555	0.0669	0.0796	0.0936	0.113	0.131	0.156
x2 = 0.2307	0.0599	0.0732	0.0858	0.101	0.121	0.143	0.169	0.197	0.23
x2 = 0.3103	0.0907	0.109	0.127	0.148	0.178	0.204	0.234	0.27	0.312
x2 = 0.4117	0.131	0.154	0.181	0.213	0.249	0.287	0.329	0.379	0.433
x2 = 0.5454	0.16	0.192	0.225	0.262	0.301	0.347	0.399	0.459	0.529
x2 = 0.7297	0.197	0.23	0.268	0.309	0.36	0.413	0.47	0.534	0.6
